The test system of one assay is CT26‐luc cells. Nature of the assay: In vivo vaccination and rechallenge, CT26-luc model. More on the design: species or system BALB/c mice. The procedure:
The ability to stimulate ICD in vivo was evaluated using a CT26‐luc vaccination and rechallenge model, following the gold‐standard method (Figure 5A). The mice were randomly assigned to groups and injected subcutaneously on the left flank with PBS solution, CT26‐luc cells pre‐treated with either 600 µM Cisplatin in the dark, 6.5 µM Ce6, or 1.8 µM Os2 upon 740 nm LED light irradiation (60 min, 12.6 J cm^−2). After 7 days, all the mice were rechallenged by subcutaneous injection of untreated live CT26‐luc cells on the right flank. […] However, by day 15, tumors in the PBS‐treated (control) group grew rapidly, reaching an average tumor volume of 717 ± 190 mm^3.
The BALB/c female mice were randomly divided into 4 groups with each group containing 5 mice, which were named as Control group, Cisplatin group, Ce6 group and Os2 group. CT26-luc cells wer e treat ed in vitro with 600 µM Cisplatin in the dark, 6.5 µM Ce6 or 1.8 µM Os2 upon 740 nm LED light irradiation (60 min, 12.6 J cm-2) following the methods described above. Subsequently, treated CT26-luc cells (3×10^5 cells in 100 µ L sterile PBS) or 100 µ L sterile PB S were injected subcutaneously into the left flank of each mouse. One week later, mice were r echalleng ed by injection with untreated CT26- luc cells (1×10^6 cells in 100 µL sterile PBS). The mice were monitored by an in vivo imaging system (Biospace Lab, Photon Imager Optima) and the tumor volume was calculated with the following equation: tumor volume = width 2 × length × […]
In vivo vaccination study on MCA205 cells
The C57BL/6 mice were randomly divided into 5 groups with each group containing 10 mice, whi ch w ere nam ed as Control group, Cisplatin group, Oxaliplatin group, Ce6 group and Os2 group. M CA205 cells were treated in vitro with 500 µM Cisplatin o r 1400 µM Oxaliplatin in the dark, 5.5 µM Ce6 or 3 µM Os2 upon 740 nm LED light irradiation (60 min, 12.6 J cm-2) following the methods described above. […] The tumor volume was calculated with the following equation: tumor volume =

For assay [1], the system named is mouse fibrosarcoma (MCA205) cells. Nature of the assay: Resazurin cell viability assay, phototoxicity. Format: cell-based. Conditions: MCA-205, light or radiation study, 1 h, MCA205, 740 nm, 60 min, 12.60 J/cm2. As to the method: (100 U ml−1), streptomycin (100 U ml−1), and 1% L-glutamine. The murine fibrosarcom a (MCA205) cells were cultured in RPMI 1640 medium with 10% fetal bovine serum (FBS), penicillin (100 U ml−1), streptomycin (100 U ml−1), and 1% L-glutamine. All cells were incubated at 37 °C in a humidified atmosphere with 5 % CO2.
Normoxia. The in vitro viability of cells exposed to the complexes was determined using a resazurin assay. C ells were seeded in 96-well plates at densities of 4,000 cells/well for CT26, MC A205 and U-87 MG cells, and 8,000 cells/well for MRC-5 and NIH/3T3 cells. A fter 24 h of growth at 37 °C wit h 5% CO2, the medium was replaced with fresh medium containing various concentrations of the compounds . Following a 4- h incubation in the dark, the medium was refres hed , and the plates were exposed to irradiation usinga LUM OS -BIO photoreactor (At las Photonics).N on- ir rad iated plates were similarly refr eshed with medium and kept in the dark for the same duration. After a 40- h r ecov ery period, a f reshly pr epar ed resazurin solution (0.2 mg/mL) was added to each well, and the plates were left in the dark for 4 h before analysis on a B i o Te k Cytation 5 Cell Imaging Multimode Reader (Agil ent Technologies). […]
Background: The colour change of resazurin is a common sign of viable cells or microbes.

`C=Cc1c(C)c2cc3nc(c(CC(=O)O)c4[nH]c(cc5nc(cc1[nH]2)C(C)=C5CC)c(C)c4C(=O)O)[C@@H](CCC(=O)O)[C@@H]3C` [Ce6, chlorin e6]: the “Mice with tumors completely ablated” value in the assay with CT26‐luc cells (by day 40, n = 5 per group) is “one mouse”. In addition, the “Tumor volume, times smaller than control group” value in the assay on CT26‐luc cells (day 15 after rechallenge, vaccination with CT26‐luc cells pre-treated with 6.5 µM Ce6 or 1.8 µM Os2 + 740 nm) is listed as 1.7. Moreover, in the assay with CT26‐luc cells (up to 40 days after rechallenge, compared to the other groups), the Survival result is given as “prolonged survival periods”. For the same molecule, 1770 ± 380 nM corresponded to half-maximal inhibition in assay [1] (IC50).

The values are drawn from article PMC13327620, “A Deep‐Red‐Absorbing Osmium(II) Complex as a Photosensitizer for Photodynamic Therapy Inducing Immunogenic Cell Death” (Angewandte Chemie (International Ed. in English), 2026).
